pKi: −log10 of the molar value.
Experiments:
[1] = tested on: ec302 (TEM-10); test: Tigemonam potentiation (MPC@4), ec302; type: cell-based
[2] = tested on: KP1005 (CTX-M-14); test: Aztreonam potentiation (MPC@4), KP1005; type: cell-based; details: BLI with aztreonam at 4 μg/mL
[3] = target: CTX-M-14 (Escherichia coli, UniProt Q9L5C7); test: Ki, nitrocefin cleavage by purified enzyme, CTX-M-14; type: biochemical; details: nitrocefin reporter substrate; read-out: Ki (CTX-M-14, NCF)
Method in brief: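 Readout: nitrocefin hydrolysis, A490 recorded every 10 sec over 10 min. Enzyme and inhibitor (varied concentrations) preincubated 10 min, RT, in reaction buffer before substrate addition.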

[4] = tested on: ec302 (TEM-10); test: Aztreonam potentiation (MPC@4), ec302; type: cell-based; details: BLI with aztreonam at 4 μg/mL
[5] = tested on: PAM1032/KPC-2; test: Biapenem potentiation MPC64, PAM1032/KPC-2 (efflux proficient); type: cell-based, Pseudomonas aeruginosa; details: BLI to decrease MIC of biapenem 64-fold; MexAB-OprM overexpressed
Protocol: Efflux of BLIs from Pseudomonas aeruginosa by the MexAB-OprM efflux pump was also evaluated. […] Due to expression of KPC-2 both strains became resistant to biapenem. […] Potency of BLIs to potentiate biapenem in these strains was determined. […] The ratio of MPC64 values for each BLI in PAM1032/KPC-2 (efflux proficient) and PAM1154/KPC-2 (efflux deficient) was determined to generate the Efflux Index (EI).

[6] = tested on: KP1005 (CTX-M-14); test: Tigemonam potentiation (MPC@4), KP1005; type: cell-based; details: BLI with tigemonam at 4 μg/mL
[7] = tested on: ec308 (SHV-5); test: Tigemonam potentiation (MPC@4), ec308; type: cell-based
[8] = tested on: EC1010 (CMY-6); test: Tigemonam potentiation (MPC@4), EC1010; type: cell-based; details: BLI with tigemonam at 4 μg/mL
[9] = target: Pa AmpC (Pseudomonas aeruginosa, UniProt P24735); test: Ki, nitrocefin cleavage by purified enzyme, Pa AmpC; type: biochemical; details: nitrocefin reporter substrate; read-out: Ki (Pa AmpC, NCF)
Method in brief: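 Ki derived spectrophotometrically: after adding nitrocefin, absorbance at 490 nm recorded every 10 sec over 10 min. Each purified enzyme had first been incubated with inhibitor at several concentrations for 10 min at room temperature.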

[10] = tested on: KP1010 (SHV-12); test: Aztreonam potentiation (MPC@4), KP1010; type: cell-based
[11] = tested on: ec308 (SHV-5); test: Aztreonam potentiation (MPC@4), ec308; type: cell-based; details: BLI with aztreonam at 4 μg/mL
[12] = tested on: KP1086 (OXA-48); test: Biapenem potentiation (MPC@1), KP1086; details: BLI with biapenem at 1 μg/mL
[13] = tested on: KP1009 (CTX-M-15); test: Tigemonam potentiation (MPC@4), KP1009; type: cell-based; details: BLI with tigemonam at 4 μg/mL
[14] = tested on: KP1010 (SHV-12); test: Tigemonam potentiation (MPC@4), KP1010; type: cell-based
[15] = tested on: EC1010 (CMY-6); test: organism not typed; type: cell-based
[16] = tested on: KP1004 (KPC-2); test: Biapenem potentiation (MPC@1), KP1004; details: BLI with biapenem at 1 μg/mL
[17] = tested on: ECL1002; test: Tigemonam potentiation (MPC@4), ECL1002; type: cell-based; details: BLI with tigemonam at 4 μg/mL

Chain of Pa AmpC (P24735 27-397): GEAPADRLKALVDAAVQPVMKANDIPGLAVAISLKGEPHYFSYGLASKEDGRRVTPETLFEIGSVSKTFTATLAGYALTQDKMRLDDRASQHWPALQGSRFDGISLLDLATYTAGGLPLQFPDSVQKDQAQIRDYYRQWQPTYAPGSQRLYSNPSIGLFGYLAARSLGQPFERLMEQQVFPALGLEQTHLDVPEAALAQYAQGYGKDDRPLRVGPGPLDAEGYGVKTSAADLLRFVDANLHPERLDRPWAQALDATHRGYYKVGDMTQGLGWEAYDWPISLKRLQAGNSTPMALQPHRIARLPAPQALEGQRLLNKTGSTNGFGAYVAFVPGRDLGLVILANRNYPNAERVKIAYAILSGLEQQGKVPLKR
Chain of CTX-M-14 (Q9L5C7 29-291): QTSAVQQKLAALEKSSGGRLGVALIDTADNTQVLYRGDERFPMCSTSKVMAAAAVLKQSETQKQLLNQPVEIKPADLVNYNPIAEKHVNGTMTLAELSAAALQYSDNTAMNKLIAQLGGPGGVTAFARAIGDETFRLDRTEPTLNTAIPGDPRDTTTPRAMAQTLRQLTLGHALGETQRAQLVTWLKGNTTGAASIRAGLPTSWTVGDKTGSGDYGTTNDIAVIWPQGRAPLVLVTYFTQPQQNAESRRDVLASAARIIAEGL

SMILES | TIG MPC4 TEM-10 ec302 [1] | AZT MPC4 CTX-M-14 KP1005 [2] | pKi [3] | AZT MPC4 TEM-10 ec302 [4] | PAM1032/KPC-2 Biapenem MPC64 [5] | TIG MPC4 CTX-M-14 KP1005 [6] | TIG MPC4 SHV-5 ec308 [7] | TIG MPC4 CMY-6 EC1010 [8] | pKi [9] | AZT MPC4 SHV-12 KP1010 [10] | AZT MPC4 SHV-5 ec308 [11] | BPM MPC1 OXA-48 KP1086 [12] | TIG MPC4 CTX-M-15 KP1009 [13] | TIG MPC4 SHV-12 KP1010 [14] | AZT MPC4 CMY-6 EC1010 [15] | BPM MPC1 KP1004 KPC-2 [16] | TIG MPC4 ECL1002 [17]
CNC(=O)CC(=O)N[C@H]1Cc2cccc(C(=O)O)c2OB1O [G, reference compound] | Z (key: X: MIC of less than 1 ng/mL; Y: MIC of 1 μg/mL to 10 μg/mL; Z: MIC of greater than 10 μg/mL) | Y (MIC of 1 μg/mL to 10 μg/mL) | > 9.00 | Y (MIC of 1 μg/mL to 10 μg/mL) | 40 | Y (MIC of 1 μg/mL to 10 μg/mL) | Y (key: X: MIC of less than 1 ng/mL; Y: MIC of 1 μg/mL to 10 μg/mL; Z: MIC of greater than 10 μg/mL) | X (MIC of less than 1 μg/mL) | – | – | – | – | – | – | – | – | –
O=C(CSC1CNC1)N[C@H]1Cc2cccc(C(=O)O)c2OB1O [B, reference compound] | Z (key: X: MIC of less than 1 ng/mL; Y: MIC of 1 μg/mL to 10 μg/mL; Z: MIC of greater than 10 μg/mL) | – | – | Y (MIC of 1 μg/mL to 10 μg/mL) | 2.5 | Y (MIC of 1 μg/mL to 10 μg/mL) | Y (key: X: MIC of less than 1 ng/mL; Y: MIC of 1 μg/mL to 10 μg/mL; Z: MIC of greater than 10 μg/mL) | X (MIC of less than 1 μg/mL) | 8.00 to 9.00 | – | – | – | – | – | – | – | –
Nc1nnc(C(=O)N[C@H]2Cc3cccc(C(=O)O)c3OB2O)s1 [H, reference compound] | Y (key: X: MIC of less than 1 ng/mL; Y: MIC of 1 μg/mL to 10 μg/mL; Z: MIC of greater than 10 μg/mL) | Y (MIC of 1 μg/mL to 10 μg/mL) | – | X (MIC of less than 1 ng/mL) | 80 | Y (MIC of 1 μg/mL to 10 μg/mL) | X (key: X: MIC of less than 1 μg/mL; Y: MIC of 1 μg/mL to 10 μg/mL; Z: MIC of greater than 10 μg/mL) | – | > 9.00 | X (key: X: MIC of less than 1 ng/mL; Y: MIC of 1 μg/mL to 10 μg/mL; Z: MIC of greater than 10 μg/mL) | X (MIC of less than 1 ng/mL) | Y (MIC of 1 μg/mL to 10 μg/mL) | X (MIC of less than 1 μg/mL) | X (key: X: MIC of less than 1 μg/mL; Y: MIC of 1 μg/mL to 10 μg/mL; Z: MIC of greater than 10 μg/mL) | X (key: X: MIC of less than 1 ng/mL; Y: MIC of 1 μg/mL to 10 μg/mL; Z: MIC of greater than 10 μg/mL) | X (MIC of less than 1 μg/mL) | X (MIC of less than 1 μg/mL)

From patent publication US9963467B2, “Boronic acid derivatives and therapeutic uses thereof” (Rempex Pharmaceuticals, Inc., priority 2014, dated 2018)
